We go through 1 compound from patent US20230148299A1, “FEM1B PROTEIN BINDING AGENTS AND USES THEREOF” (The Regents Of The University Of California, priority 2020, published 2023).

Each structure is given as a SMILES string.

One assay deals with FEM1B-FNIP1 (Homo sapiens, UniProt Q9UK73). Briefly: Fluorescence polarization between FEM1B and FNIP1 (covalent ligand screen). It counts as binding. As to conditions: DMSO = 100, FP between FEM1B and FNIP1. The text has this: FIG. 11. Fluorescence polarization screen to identify functional FEM1B-FNIP1-targeting covalent ligands.
Chain of FEM1B-FNIP1 (Q9UK73 whole entry): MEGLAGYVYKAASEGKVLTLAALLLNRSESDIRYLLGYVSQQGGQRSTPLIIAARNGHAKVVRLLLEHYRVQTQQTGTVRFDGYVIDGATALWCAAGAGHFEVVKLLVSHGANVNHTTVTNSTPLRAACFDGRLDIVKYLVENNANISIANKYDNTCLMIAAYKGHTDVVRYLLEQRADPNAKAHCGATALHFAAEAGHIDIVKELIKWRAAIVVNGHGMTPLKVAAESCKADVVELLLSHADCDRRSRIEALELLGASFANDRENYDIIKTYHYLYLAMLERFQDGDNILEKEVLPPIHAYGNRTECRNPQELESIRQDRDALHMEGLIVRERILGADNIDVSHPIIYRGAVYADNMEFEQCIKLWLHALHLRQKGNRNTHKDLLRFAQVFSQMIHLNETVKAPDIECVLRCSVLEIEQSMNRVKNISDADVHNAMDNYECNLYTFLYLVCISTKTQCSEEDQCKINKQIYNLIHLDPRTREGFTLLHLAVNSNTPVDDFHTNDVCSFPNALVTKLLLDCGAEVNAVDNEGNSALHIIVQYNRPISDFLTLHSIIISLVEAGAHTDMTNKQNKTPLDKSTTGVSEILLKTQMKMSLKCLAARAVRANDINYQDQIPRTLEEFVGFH
FEM1B binds a conserved central degron in FNIP1. Deletion analysis of FNIP1 identifies a stretch of 20 amino acids that is required for its binding to FEM1B and its proteasomal degradation. FNIP1 variants were expressed in cells and tested for interaction with ^FLAGFEM1B by co-immunoprecipitation, and for degradation by measuring their abundance in the presence or absence of FEM1B. The FNIP1 degron is required for FEM1B binding and proteasomal degradation. […] FEM1B variants were immunoprecipitated and bound FNIP1 and FLCN were detected by Western blotting. The FNIP1 degron is sufficient to mediate FEM1B-dependent degradation. The FNIP1 degron was fused to GFP (GFP^degron) and expressed from the same plasmid as an IRES controlled mCherry. mCherry provides normalization for GFP fluorescence in each cell. […] Levels of GFP^degron and mCherry were determined by FACS, and their ratio is depicted for presence or absence of FEM1B variants. Deletion of FEM1B prevents FNIP1-degron dependent degradation. The FEM1B locus was deleted in 293T cells using CRISPR/Cas9. Cells were transfected with the GFP^degron/mCherry reporter, and analyzed for GFP and mCherry fluorescence by FACS. FEM1B directly binds the FNIP1 degron in vitro. A TAMRA-labeled FNIP1 degron peptide was incubated with purified FEMIB or the control CRL1 adaptor FBXL17, and binding was measured by fluorescence polarization of the peptide. The FNIP1 degron is sufficient to mediate CUL2^FEM1B-dependent ubiquitylation. The TAMRA-labeled FNIP1 degron was incubated with recombinant CUL2^FEM1B (unmodified or NEDD8-modified), E1, ubiquitin, ATP and the E2 enzymes UBE2D3 and/or UBE2R1. Ubiquitylation was monitored by gel electrophoresis and fluorescence detection.
(In general: Fluorescence polarisation rises when a labelled molecule tumbles more slowly, as on binding a larger partner.)

Assay [1] deals with T1, FEM1B (Homo sapiens, UniProt Q9UK73). Briefly: EN106-alkyne pulldown and isoTOP-ABPP in HEK293T cells. The note with it: EN106 10 μM 2 h (isoTOP-ABPP), EN106-alkyne pulldown. Also on record: endogenous in cells; host or cells: HEK293T. It counts as cell-based. On the procedure: FIGS. 14A-14C. […] FIG. 14A: Structures of EN106 and EN106-alkyne (NJH-2-030). FIG. 14B: EN106-alkyne pulldown. See Example 4 for experimental procedure. FIG. 14C: HEK293T cells were treated with vehicle or EN106 (10 μM) for 2 h and cell lysates were subjected to the isoTOP-ABPP protocol described in Example 4.
T1 sequence (Q9UK73 whole entry): as above
EN106-alkyne pulldown protocol. HEK293T cells were treated with DMSO or 10 μM NJH-2-030 in situ for 8 h. Cells were harvested, lysed via sonication and normalized to 2.0 mg/mL. Following normalization, 100 μL of each lysate sample was removed for Western blot analysis of input, and 500 μL of each lysate sample was incubated for 1 h at room temperature with 10 μL of 5 mM biotin picolyl azide (in water) (Sigma Aldrich 900912), 10 μL of 50 mM TCEP (in water), 30 μL of TBTA ligand (0.9 mg/mL in DMSO:t-butanol=1:4), and 10 μL of 50 mM Copper (II) Sulfate (12.5 mg/mL in water). Proteins were precipitated, washed 3×1 mL with cold MeOH, resolubilized in 1 mL of 1.2% SDS/PBS (w/v), heated for 5 min at 90° C., and centrifuged to remove any insoluble components. […] Proteins in each sample were then analyzed by Western blotting to look for enriched FEM1B versus non-enriched GAPDH.
IsoTOP-ABPP Chemoproteomic Experiment. […] Cells were lysed by probe sonication in PBS and protein concentrations were measured by BCA assay. […]

Assay [2] concerns GFP-Fnip1 degron reporter. Briefly: GFP-Fnip1 degron reporter (GFP/mCherry) by flow cytometry. The format is cell-based. The note with it: HEK293T cells, reporter +/- Fem1b, 20 μM, 8 hours. (In general: A flow cytometer gives signals particle by particle.)
Method: HEK293T cells were transfected 24 hours before flow cytometery with the GFP-Fnip1 degron reporter+/−Fem1b.
FNIP1 variants were expressed in cells and tested for interaction with ^FLAGFEM1B by co-immunoprecipitation, and for degradation by measuring their abundance in the presence or absence of FEM1B. […] FEM1B variants were immunoprecipitated and bound FNIP1 and FLCN were detected by Western blotting. […] The FNIP1 degron was fused to GFP (GFP^degron) and expressed from the same plasmid as an IRES controlled mCherry. mCherry provides normalization for GFP fluorescence in each cell. […] Levels of GFP^degron and mCherry were determined by FACS, and their ratio is depicted for presence or absence of FEM1B variants. […] Cells were transfected with the GFP^degron/mCherry reporter, and analyzed for GFP and mCherry fluorescence by FACS. […] A TAMRA-labeled FNIP1 degron peptide was incubated with purified FEMIB or the control CRL1 adaptor FBXL17, and binding was measured by fluorescence polarization of the peptide. […] The TAMRA-labeled FNIP1 degron was incubated with recombinant CUL2^FEM1B (unmodified or NEDD8-modified), E1, ubiquitin, ATP and the E2 enzymes UBE2D3 and/or UBE2R1. Ubiquitylation was monitored by gel electrophoresis and fluorescence detection.
Assay [3] deals with T1, FEM1B. Kind of assay: Gel-based ABPP of EN106 against FEM1B and site identification. The format is binding. The note with it: C186. An excerpt: FIGS. 12A-12B. […] FIG. 12A: Gel-based ABPP of EN106 against FEM1B. FIG. 12B: EN106 targets C186 in FEM1B. C186 is critical for substrate recognition of FEM1B. Sequence shown is: […] (residues 183-205 of SEQ ID NO:1).

Turning to `N#CCCN(C(=O)CCl)c1ccc2c(c1)OCCO2` [EN106, 2-chloro-N-(2-cyanoethyl)-N-(2,3-dihydrobenzo[b][1,4]dioxin-6-yl)acetamide], the remaining activity at 5 µM at FEM1B-FNIP1 (compound at 5 μM, read-out: Normalized FP 5 μM) was found to be 50.6%. The activity at 50 µM at FEM1B-FNIP1 (compound at 50 μM, read-out: Normalized FP 50 μM) amounted to 4.2%. The “FEM1B engagement in cells” value at FEM1B [1] is “engages FEM1B in cells”. The “inhibition of FEM1B in cells / FNIP1 stabilization” value in assay [2] is “inhibits endogenous and overexpressed FEM1B in cells and stabilizes FNIP1”. Moreover, on FEM1B [3], the “covalent targeting of FEM1B cysteine” value is “covalently targets C186 on FEM1B”.
